Active and inactive are the calls of the source.
Legend:
[1] = molecular target: Neuropeptide Y receptor type 2 (Homo sapiens, UniProt P49146); assay: NPY-Y2 antagonist potency, selectivity check, dose response, counter-screen for NPY-Y1 antagonist project, cell-based (AID 1278); assay type: functional
[2] = molecular target: Neuropeptide Y receptor type 1 (Homo sapiens, UniProt P25929); assay: NPY-Y1 receptor antagonist potency, dose response, cell-based (AID 1277); assay type: functional
Genome polyprotein = Genome polyprotein (dengue virus type 2, UniProt P29990); assay: Dengue-2 NS5 methyltransferase inhibitors, primary screen, biochemical, confirmation dose response (AID 588689); assay type: functional
[3] = molecular target: Sphingosine 1-phosphate receptor 2 (Homo sapiens, UniProt O95136); assay: Dose Response Cell Based Assay for Agonists of the S1P2 Receptor of Purchased Analogues. [Related pubchem assays: 729, 843, 854, 736 ]; assay type: functional
Chain of Sphingosine 1-phosphate receptor 2 (O95136 whole entry): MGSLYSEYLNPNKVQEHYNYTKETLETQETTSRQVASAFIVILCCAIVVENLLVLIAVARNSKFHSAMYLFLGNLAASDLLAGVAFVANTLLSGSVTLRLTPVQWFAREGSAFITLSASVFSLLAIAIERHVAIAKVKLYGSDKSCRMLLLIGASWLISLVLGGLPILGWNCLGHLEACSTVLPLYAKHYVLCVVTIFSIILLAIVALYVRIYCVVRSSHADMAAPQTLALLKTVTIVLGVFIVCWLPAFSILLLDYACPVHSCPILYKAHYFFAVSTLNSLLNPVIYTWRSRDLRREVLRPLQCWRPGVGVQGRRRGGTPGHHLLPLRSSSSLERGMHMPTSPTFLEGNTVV

[4] = NIH-3T3 fibroblast cytotoxicity, dose response, cytotoxicity control, cell-based, fluorescence, Alamar Blue, secondary assay (AID 2327); assay type: functional;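 further: NIH-3T3 mouse fibroblasts cultured with fluconazole at 8 µg/mL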
BJ [5] = assay: cytotoxicity toward BJ-TERT fibroblasts, dose response, cell-based, RAS-independent, luminescence (AID 1933); assay type: functional; details: Homo sapiens
BJ [6] = assay: cells; assay type: functional, cell-based; details: Homo sapiens
[7] = C. albicans growth with fluconazole, confirmation, fluorescence, retest (AID 2467); assay type: functional, cell-based
[8] = inhibitors of intracellular T. cruzi replication, confirmation, NIH3T3 host cells, beta-gal luminescence (AID 2044); assay type: functional, cell-based;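 further: intracellular parasites grown in NIH/3T3 mouse fibroblasts as host cells; luminescent beta-galactosidase reporter signal from transgenic T. cruzi replicating inside host cells; inhibitors lower the luminescence signal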
[9] = molecular target: T1, Calpain-2 catalytic subunit (Sus scrofa, UniProt P43367); assay: pig calpain II inhibitor potency, dose response, biochemical, fluorogenic peptide substrate (AID 1420); assay type: functional
T1 sequence (P43367 whole entry): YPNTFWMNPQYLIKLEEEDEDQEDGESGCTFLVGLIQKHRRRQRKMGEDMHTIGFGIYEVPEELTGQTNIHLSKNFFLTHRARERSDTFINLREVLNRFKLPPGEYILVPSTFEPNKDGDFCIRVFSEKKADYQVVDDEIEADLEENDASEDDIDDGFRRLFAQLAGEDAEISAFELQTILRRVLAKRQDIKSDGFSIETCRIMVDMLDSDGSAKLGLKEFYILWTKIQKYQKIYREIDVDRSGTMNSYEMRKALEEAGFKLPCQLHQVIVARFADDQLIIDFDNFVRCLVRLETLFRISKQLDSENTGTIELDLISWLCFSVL

[10] = cytotoxicity toward NIH3T3 fibroblasts, dose response, counter-screen, cell-based, ATP luminescence, mouse fibroblasts (AID 2010); assay type: functional;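 further: cells exposed to compound for about 90 hours before reading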
BJ [11] = assay: cytotoxicity toward BJ-TERT-LT-ST fibroblasts, dose response, cell-based, RAS-independent, luminescence (AID 1935); assay type: functional; details: Homo sapiens;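 further: BJ fibroblasts immortalized with TERT plus LT and ST oncogenes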
Ephrin type-A receptor 4 = Ephrin type-A receptor 4 (Mus musculus, UniProt Q03137); assay: inhibitors of EphA4 binding to KYL peptide, primary screen, biochemical, colorimetric, mouse EphA4 (AID 689); assay type: functional
Chain of Ephrin type-A receptor 4 (Q03137 whole entry): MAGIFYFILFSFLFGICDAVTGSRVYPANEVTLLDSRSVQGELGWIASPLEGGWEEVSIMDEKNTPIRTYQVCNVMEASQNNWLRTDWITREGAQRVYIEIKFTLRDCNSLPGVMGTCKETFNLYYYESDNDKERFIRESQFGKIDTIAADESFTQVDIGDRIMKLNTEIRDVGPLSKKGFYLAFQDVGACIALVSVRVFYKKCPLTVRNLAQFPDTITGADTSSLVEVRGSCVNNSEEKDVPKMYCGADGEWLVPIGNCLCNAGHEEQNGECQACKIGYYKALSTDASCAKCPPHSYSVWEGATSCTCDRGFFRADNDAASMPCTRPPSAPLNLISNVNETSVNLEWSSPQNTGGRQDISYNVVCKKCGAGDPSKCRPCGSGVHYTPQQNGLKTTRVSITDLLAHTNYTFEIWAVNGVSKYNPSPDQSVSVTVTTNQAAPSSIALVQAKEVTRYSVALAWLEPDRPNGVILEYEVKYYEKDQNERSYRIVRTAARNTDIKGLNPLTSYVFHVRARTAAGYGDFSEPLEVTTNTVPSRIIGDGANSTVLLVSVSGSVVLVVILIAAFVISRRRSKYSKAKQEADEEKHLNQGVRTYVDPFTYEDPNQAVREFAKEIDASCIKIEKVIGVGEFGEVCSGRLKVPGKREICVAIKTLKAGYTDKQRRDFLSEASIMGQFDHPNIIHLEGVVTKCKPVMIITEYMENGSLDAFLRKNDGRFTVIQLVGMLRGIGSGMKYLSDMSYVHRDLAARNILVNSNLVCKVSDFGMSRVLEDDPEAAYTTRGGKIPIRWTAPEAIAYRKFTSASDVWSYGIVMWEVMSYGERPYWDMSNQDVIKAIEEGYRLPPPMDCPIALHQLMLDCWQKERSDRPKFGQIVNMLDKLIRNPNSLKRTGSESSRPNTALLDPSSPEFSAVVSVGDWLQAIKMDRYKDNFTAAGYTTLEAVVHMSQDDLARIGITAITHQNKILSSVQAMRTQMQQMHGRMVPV

[12] = cytotoxicity toward DRD oncogenic fibroblasts, dose response, cell-based, non-viral oncogenic, luminescence (AID 1934); assay type: functional; details: Homo sapiens
[13] = molecular target: Voltage-dependent T-type calcium channel subunit alpha-1H (Homo sapiens, UniProt O95180); assay type: functional;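 further: channel activity triggered by adding a high calcium stimulation buffer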
Chain of Voltage-dependent T-type calcium channel subunit alpha-1H (O95180 whole entry): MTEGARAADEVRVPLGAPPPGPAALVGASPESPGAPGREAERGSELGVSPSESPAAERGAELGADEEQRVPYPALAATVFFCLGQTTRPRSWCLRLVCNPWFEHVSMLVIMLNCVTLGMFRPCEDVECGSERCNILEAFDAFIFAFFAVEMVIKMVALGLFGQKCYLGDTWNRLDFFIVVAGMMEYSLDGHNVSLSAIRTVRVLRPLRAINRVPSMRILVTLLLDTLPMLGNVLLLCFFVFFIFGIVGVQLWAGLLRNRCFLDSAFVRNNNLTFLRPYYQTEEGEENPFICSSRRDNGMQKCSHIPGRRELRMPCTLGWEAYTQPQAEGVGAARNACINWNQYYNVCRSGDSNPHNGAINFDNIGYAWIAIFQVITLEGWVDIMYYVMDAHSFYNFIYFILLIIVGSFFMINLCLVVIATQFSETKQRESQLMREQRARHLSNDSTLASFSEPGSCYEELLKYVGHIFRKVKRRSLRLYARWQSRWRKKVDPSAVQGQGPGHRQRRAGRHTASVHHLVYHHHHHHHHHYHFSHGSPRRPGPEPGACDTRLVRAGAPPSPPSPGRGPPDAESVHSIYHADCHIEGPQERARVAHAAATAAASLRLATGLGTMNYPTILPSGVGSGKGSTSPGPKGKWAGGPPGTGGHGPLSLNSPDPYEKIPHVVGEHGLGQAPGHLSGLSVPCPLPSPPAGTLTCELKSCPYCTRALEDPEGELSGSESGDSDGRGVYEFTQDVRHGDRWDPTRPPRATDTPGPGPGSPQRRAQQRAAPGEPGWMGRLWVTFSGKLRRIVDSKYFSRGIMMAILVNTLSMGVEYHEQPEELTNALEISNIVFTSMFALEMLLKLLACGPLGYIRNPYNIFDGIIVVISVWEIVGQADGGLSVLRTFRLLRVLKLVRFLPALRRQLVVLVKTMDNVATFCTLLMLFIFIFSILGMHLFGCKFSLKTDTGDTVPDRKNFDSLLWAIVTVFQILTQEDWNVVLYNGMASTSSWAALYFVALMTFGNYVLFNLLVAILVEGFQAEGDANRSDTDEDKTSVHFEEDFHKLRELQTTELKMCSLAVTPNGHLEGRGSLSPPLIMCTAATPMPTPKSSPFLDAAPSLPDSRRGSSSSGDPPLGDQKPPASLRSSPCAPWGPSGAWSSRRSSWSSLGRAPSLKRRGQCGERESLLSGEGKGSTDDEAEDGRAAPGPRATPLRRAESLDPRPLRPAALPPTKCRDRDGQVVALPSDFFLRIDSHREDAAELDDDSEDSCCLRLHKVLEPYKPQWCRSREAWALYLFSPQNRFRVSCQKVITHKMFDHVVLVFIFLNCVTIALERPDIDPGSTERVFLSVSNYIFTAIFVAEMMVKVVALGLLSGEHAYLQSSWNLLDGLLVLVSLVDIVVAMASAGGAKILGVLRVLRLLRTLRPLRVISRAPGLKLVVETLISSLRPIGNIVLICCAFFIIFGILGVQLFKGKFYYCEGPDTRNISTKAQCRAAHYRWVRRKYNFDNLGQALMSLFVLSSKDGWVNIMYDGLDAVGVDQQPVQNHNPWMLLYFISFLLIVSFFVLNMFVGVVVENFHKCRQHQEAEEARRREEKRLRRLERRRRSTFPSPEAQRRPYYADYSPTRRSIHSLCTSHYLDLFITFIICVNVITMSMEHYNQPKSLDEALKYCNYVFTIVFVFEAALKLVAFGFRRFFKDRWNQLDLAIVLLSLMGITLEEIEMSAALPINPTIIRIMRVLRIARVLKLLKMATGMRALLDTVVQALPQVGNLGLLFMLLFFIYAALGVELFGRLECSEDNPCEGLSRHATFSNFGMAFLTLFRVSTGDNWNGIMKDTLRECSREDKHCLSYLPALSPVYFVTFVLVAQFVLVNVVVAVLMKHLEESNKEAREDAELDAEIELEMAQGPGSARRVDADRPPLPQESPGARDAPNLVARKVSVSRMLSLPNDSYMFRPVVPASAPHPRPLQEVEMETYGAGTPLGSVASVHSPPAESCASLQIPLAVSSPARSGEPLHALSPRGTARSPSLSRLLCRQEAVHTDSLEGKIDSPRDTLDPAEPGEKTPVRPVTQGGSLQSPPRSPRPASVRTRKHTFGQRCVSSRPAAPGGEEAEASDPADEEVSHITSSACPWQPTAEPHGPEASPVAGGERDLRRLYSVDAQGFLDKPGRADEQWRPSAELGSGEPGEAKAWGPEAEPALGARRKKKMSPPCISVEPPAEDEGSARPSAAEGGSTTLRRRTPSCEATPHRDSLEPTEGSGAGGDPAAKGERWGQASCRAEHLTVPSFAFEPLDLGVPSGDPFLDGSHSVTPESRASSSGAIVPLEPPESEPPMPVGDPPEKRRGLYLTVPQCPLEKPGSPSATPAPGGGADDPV

Nonstructural protein 1 = Nonstructural protein 1 (Influenza A virus, UniProt Q194T2); assay type: functional, Influenza A virus (A/California/07/2009(H1N1))
Chain of Nonstructural protein 1 (Q194T2 whole entry): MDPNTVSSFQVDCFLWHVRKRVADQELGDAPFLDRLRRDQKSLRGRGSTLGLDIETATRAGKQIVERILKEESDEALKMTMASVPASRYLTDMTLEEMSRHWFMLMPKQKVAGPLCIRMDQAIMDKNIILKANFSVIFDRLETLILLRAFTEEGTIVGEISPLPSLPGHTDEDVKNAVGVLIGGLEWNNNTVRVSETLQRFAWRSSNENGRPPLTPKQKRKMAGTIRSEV

Cytochrome P450 3A4 = Cytochrome P450 3A4 (Homo sapiens, UniProt P08684);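 further: CYP3A4 tested as one member of a cytochrome P450 panel screen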
Chain of Cytochrome P450 3A4 (P08684 whole entry): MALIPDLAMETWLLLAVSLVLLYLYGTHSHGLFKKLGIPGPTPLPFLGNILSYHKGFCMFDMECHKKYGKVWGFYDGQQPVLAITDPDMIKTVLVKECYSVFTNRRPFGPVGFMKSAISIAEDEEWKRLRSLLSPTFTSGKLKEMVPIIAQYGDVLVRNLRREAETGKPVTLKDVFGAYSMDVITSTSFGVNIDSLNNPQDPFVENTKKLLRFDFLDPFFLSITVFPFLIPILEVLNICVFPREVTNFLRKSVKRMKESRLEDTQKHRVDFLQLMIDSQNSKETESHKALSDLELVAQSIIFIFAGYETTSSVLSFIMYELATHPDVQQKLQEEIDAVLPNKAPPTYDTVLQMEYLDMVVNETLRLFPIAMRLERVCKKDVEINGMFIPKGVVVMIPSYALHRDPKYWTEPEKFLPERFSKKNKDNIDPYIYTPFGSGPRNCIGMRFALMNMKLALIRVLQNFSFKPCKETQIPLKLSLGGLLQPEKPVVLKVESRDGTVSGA

Chain of Neuropeptide Y receptor type 2 (P49146 whole entry): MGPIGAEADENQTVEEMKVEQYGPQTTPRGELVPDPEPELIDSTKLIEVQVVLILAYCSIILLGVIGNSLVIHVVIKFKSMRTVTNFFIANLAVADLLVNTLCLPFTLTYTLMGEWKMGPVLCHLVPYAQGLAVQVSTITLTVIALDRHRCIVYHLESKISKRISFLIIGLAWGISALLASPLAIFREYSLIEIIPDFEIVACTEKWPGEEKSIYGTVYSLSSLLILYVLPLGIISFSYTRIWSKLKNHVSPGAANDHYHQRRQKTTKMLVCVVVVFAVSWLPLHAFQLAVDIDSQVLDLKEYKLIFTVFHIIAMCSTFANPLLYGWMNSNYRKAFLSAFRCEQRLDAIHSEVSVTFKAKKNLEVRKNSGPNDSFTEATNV

Compound: O=C(O)c1ccc(N(c2ccccc2)c2ccccc2)cc1
- IC50 [1]: > 35 µM (not active)
- IC50 [2]: 31.9 µM (not active)
- IC50 (Genome polyprotein): 60.3 µM (active)

Compound: CC(=O)c1cccc(OCC(=O)c2cc(C)n(Cc3ccccc3)c2C)c1
- EC50 [3]: > 30 µM (not active)

Compound: CCN1/C(=C/c2ccc3cccc(C)c3[n+]2CC)Sc2ccccc21
- EC50 [4]: 18.6 µM (inconclusive)
- EC50 (BJ [5]): 0.37 µM (inconclusive)
- EC50 (BJ [6]): 1.19 µM (active)
- EC50 [7]: < 0.03 µM (active)
- EC50 [8]: < 0.1 µM (active)
- IC50 [9]: > 50 µM (not active)
- EC50 [10]: 5.26 µM (active)
- EC50 (BJ [11]): 1.17 µM (inconclusive)
- IC50 (Ephrin type-A receptor 4): 44.1 µM (active)
- EC50 [12]: 13.6 µM (inconclusive)
- EC50 [13]: 1.77 µM (active)
- IC50 (Nonstructural protein 1): > 100 µM (active)
- AC50 (Cytochrome P450 3A4): 8.91 µM (inconclusive)
- EC50 (cells): 0.031 µM (active)

Compound: Cc1cc(C(=O)CSc2nnnn2C(C)(C)C)c(C)n1Cc1ccccc1
- EC50 [3]: > 30 µM (not active)
